The source of these data is patent publication US20190209548A1, “LINKED DIARYL COMPOUNDS WITH ANTICANCER PROPERTIES AND METHODS OF USING THE SAME” (University of Maryland, College Park, priority 2014, published 2019).

Data set [1] concerns MDA-MB-231. Nature of the data set: WST-1 IC50 determination, MDA-MB-231. In kind it is cell-based, human. On the procedure:
(§1) Cell lines and culturing. The following human cell lines were purchased from ATCC (ATCC, Manassas, Va.): prostate cancer cells (PC-3), triple negative breast cancer cells (MDA-MB-231), ovarian cancer cells (OVCAR-3), normal bone marrow (NBM) and normal fibroblast cells (MCR5A). MDA-MB-231 cells were grown at 37° C. with 5% CO2 atmosphere with DMEM (Life technologies, Carlsbad, Calif.) supplemented with heat-inactivated 10% (V/V) fetal bovine serum. OVCAR-3 and PC-3 cells were grown at 37° C. with 5% CO2 atmosphere with RPMI (Life technologies, Carlsbad, Calif.) supplemented with heat-inactivated 10% (V/V) fetal bovine serum. Cell lines were grown and maintained according to ATCC recommendations.
(§2) IC50 determination. Cell lines were seeded into 96-well plates the afternoon prior to treatment. Cell seeding number was determined by growing cells in log phase growth during drug treatment. Approximately 18 hours later, compounds were semi-serially diluted in dimethyl sulfoxide (DMSO) and then growth medium, and added to cells. Plates were incubated for 72 hours prior to addition of WST-1 (Promega, Madison Wis.). Plates were read after 4 additional hours of incubation at 37° C. using a Bio-Tek Synergy HT plate reader (Bio-Tek, Winooski, Vt.). Data was analyzed, graphed and IC50s generated using GraphPad Prism Software (Graphpad, La Jolla, Calif.).
(§3) IC50 determination: For the determination of IC50 for the azolamide class, the same protocol as described previously was followed.

Data set [2] has as its system MOLM14. As to the kind of experiment: WST-1 IC50 determination, MOLM14. In kind it is cell-based. The following applies: Homo sapiens, MOLM-14, read-out: Anticancer activities, Molm14. As for the experimental part:
as §2, §3
On the technique in general: Tetrazolium dyes change colour on reduction, which living cells bring about.

For data set [3], the system named is U87. Nature of the data set: IC50 determination, U87. It counts as cell-based. Conditions: Homo sapiens, U-87 MG; Glioblastoma; read-out: Anticancer activities, U87. As for the experimental part: as §2, §3
The test system of data set [4] is MV4-11. As to the kind of experiment: IC50 determination, MV4-11. It counts as cell-based. The following applies: Homo sapiens, Acute monocyctic leukemia, read-out: Anticancer activities, MV4-11. As for the experimental part:
as §2, §3

Data set [5] concerns PC-3. Nature of the data set: WST-1 IC50 determination, PC-3. It counts as cell-based, human. On the procedure:
as §1, §2, §3

Data set [6] can be described thus: Tolerability studies. The following applies: mice, 10 mg/Kg. It counts as in vivo.
Data set [7] is described as follows: Human liver microsome stability. It counts as in vitro ADME. An excerpt:
An established method to determine the pharmacokinetic clearance of a compound in humans is to measure the degradation of the compound in the presence of human liver microsomes. The following is the half-lives of the four compounds in human liver microsomes: […]

Data set [8] deals with triple-negative breast cancer cells. Nature of the data set: Cancer cell migration. It counts as cell-based. The following applies: increasing concentration. An excerpt:
FIG. 36. […] Red=negative control—no FCS in bottom well. Green=DMSO. Blue and pink=increasing concentration of 630-1.

The subject of data set [9] is NBM. Nature of the data set: WST-1 IC50 determination, normal bone marrow. It counts as cell-based, human. The following applies: Homo sapiens, Bone marrow cell; Normal bone marrow cells; read-out: Anticancer activities, NBM. As for the experimental part: as §1, §2, §3
Data set [10] has as its system HT1080. Conditions: read-out: IC50 of cisplatin; cited from earlier work.
Data set [11] deals with PNT1. Conditions: read-out: IC50 of cisplatin; cited from earlier work.
Data set [12] concerns RD. The following applies: read-out: IC50 of cisplatin; cited from earlier work.
Data set [13] has as its system A375. The following applies: read-out: IC50 of cisplatin; cited from earlier work.
Data set [14] concerns MCF-7/DX. Conditions: read-out: IC50 of cisplatin; cited from earlier work.
In data set [15] the test system is U2-OS. The following applies: read-out: IC50 of cisplatin; cited from earlier work.
Data set [16] concerns Hep2. The following applies: read-out: IC50 of cisplatin; cited from earlier work.
The test system of data set [17] is PC3. The following applies: read-out: IC50 of cisplatin; cited from earlier work.
The subject of data set [18] is SH-SY5Y. The following applies: read-out: IC50 of cisplatin; cited from earlier work.
Data set [19] concerns HOS. The following applies: read-out: IC50 of cisplatin; cited from earlier work.
The subject of data set [20] is HT29. Conditions: read-out: IC50 of cisplatin; cited from earlier work.
Data set [21] relates to A431. Conditions: read-out: IC50 of cisplatin; cited from earlier work.
The test system of data set [22] is OVCAR-3. As to the kind of experiment: WST-1 IC50 determination, OVCAR-3. In kind it is cell-based, human. Conditions: 72 hours, WST-1. As for the experimental part: as §1, §2, §3
Data set [23] relates to SAOS-2. Conditions: read-out: IC50 of cisplatin; cited from earlier work.
The test system of data set [24] is CFPAC-1. The following applies: read-out: IC50 of cisplatin; cited from earlier work.
For data set [25], the system named is Calu-3. The following applies: read-out: IC50 of cisplatin; cited from earlier work.
Data set [26] has as its system CAPAN-1. Conditions: read-out: IC50 of cisplatin; cited from earlier work.
The test system of data set [27] is SW872. Conditions: read-out: IC50 of cisplatin; cited from earlier work.
Data set [28] has as its system PANC-1. The following applies: read-out: IC50 of cisplatin; cited from earlier work.
Data set [29] concerns G-quadruplex DNAs (c-kit1, VEGF, bcl-2 2345 and TBA). As to the kind of experiment: UV-visible titration with G-quadruplex DNA. Conditions: UV-visible titration conditions. In kind it is binding. As for the experimental part: UV titration studies of DNA with the triazene ligands, DMZ and Triazene-1. The molar extinction coefficients at 260 nm for 22-mer c-kit1, 18-mer VEGF, 23-mer bcl-2 2345, 15-mer TBA and 20-mer 8 bp AT are as follows 226,700 M^−1 cm^−1, 169,800 M^−1 cm^−1, 227,300 M^−1 cm^−1, 143,300 M^−1 cm^1 and 205,500 M^−1 cm^−1, respectively. The concentration of ligands used in this study was 10 μM and the DNA concentrations were 0, 0.25, 1.5, 3, 5, 6, 7, 8, 9, 10, 20, 30, 40, 50, 100, and 15 μM. The buffer contained 250 mM KCl, 50 mM Tris-HCl (at pH 7.5). The following quadruplex DNA were tested: c-kit1, VEGF, bcl-2 2345, and TBA. Duplex DNA (8 bp AT) was also tested. The sample was first heated up to 95° C. for 5 min without the ligand and then cooled down to room temperature in 15 min. The ligand was then added and the mixture was incubated at 4° C. for ˜12 h before recording the data. In case of Triazene-1 and Triazene-2, the sample mixture contained 1% DMSO.

The subject of data set [30] is c-MYC. As to the kind of experiment: FRET melting assay, c-MYC. In kind it is binding. Conditions: dual-labeled DNA 0.2 μM, DMZ analogues 1 μM, potassium cacodylate 60 mM pH 7.2. On the procedure:
(§4) Fluorescence resonance energy transfer (FRET) assay to determine Tm in absence and presence of ligands. Dual-labelled DNA was diluted from stock (50 μM) to 400 nM in 60 mM potassium cacodylate buffer (pH 7.2) and then annealed by heating at 85° C. for 10 min followed by cooling to room temperature in the heating block. Compounds were diluted from stock (20 mM in DMSO) to 2 μM in 60 mM cacodylate buffer (pH 7.2). 25 μL annealed DNA was added to 96-well plate followed by 25 μL diluted compounds. The sequences of labelled oligonucleotides were as follows: F21T 21-mer (5′-FAM-GGGTTAGGGTTAGGGTTAGGG-TAMRA-3′) (SEQ ID NO:11), c-kit2 26-mer (5′-FAM-CCCGGGCGGGCGCGAGGGAGGGGAGG-TAMRA-3′) (SEQ ID NO:12), k-RAS21R 21-mer (5′-FAM-AGGGCGGTGTGGGAAGAGGGA-TAMRA-3′) (SEQ ID NO:13), c-MYC 22-mer (5′-FAM-TGAGGGTGGGTAGGGTGGGTAA-TAMRA-3′) (SEQ ID NO:14) and duplex 26-mer (5′-FAM-TATAGCTATATTTTTTTATAGCTATA-TAMRA-3′) (SEQ ID NO: 15). Measurements were made in triplicate by using a LightCycler 480 System RT-PCR machine (Roche) and average values were reported. Fluorescence readings were made with excitation at 450-495 nm and detection at 515-545 nm, taken at intervals of 1.2° C./min in the range 25° C. to 95° C.

Data set [31] relates to c-kit2. Nature of the data set: FRET melting assay, c-kit2. Conditions: dual-labeled DNA 0.2 μM, DMZ analogues 1 μM, potassium cacodylate 60 mM pH 7.2. In kind it is binding. As for the experimental part: as §4
Data set [32] relates to k-RAS21R. As to the kind of experiment: FRET melting assay, k-RAS21R. In kind it is binding. Conditions: dual-labeled DNA 0.2 μM, DMZ analogues 1 μM, potassium cacodylate 60 mM pH 7.2. On the procedure: as §4
Data set [33] concerns F21T. As to the kind of experiment: FRET melting assay, F21T. In kind it is binding. Conditions: dual-labeled DNA 0.2 μM, DMZ analogues 1 μM, potassium cacodylate 60 mM pH 7.2. On the procedure:
as §4

The test system of data set [34] is duplex. As to the kind of experiment: FRET melting assay, duplex DNA. It counts as binding. Conditions: dual-labeled DNA 0.2 μM, DMZ analogues 1 μM, potassium cacodylate 60 mM pH 7.2. On the procedure:
as §4

The mark [35] stands for this setting: human, liver microsomes, read-out: NADPH-dependent T½.
Where [36] appears, read: human, liver microsomes, read-out: NADPH-independent T½.

SMILES strings stand for the structures. Like-named read-outs stand apart in the source and are kept apart here.

As for `N=C(N)c1ccc(/N=N/c2c(N)ncc3ccc(Br)cc23)cc1` [HSW630-1], the IC50 in [1] (Homo sapiens, MDA-MB-231, triple negative breast cancer, read-out: Anticancer activities, TNBC 231) was 0.48 to 0.92 µM; in [2], 0.14 µM; in [3], 0.56 µM; in data set [4] it was 0.15 µM; in data set [5] (Homo sapiens, PC-3, prostate cancer, read-out: Anticancer activities, PC3) it was 0.59 µM; in data set [9] it was 5.1 µM. Besides, the tolerability entry in data set [6] was “can be tolerated”. The half-life came to 3.18 h in data set [7] (setting [35]) and 2.07 h in [7] (setting [36]). Besides, the “migration of cancer cells” value in data set [8] is “prevents cancer cells from migrating”; in [8] (listed as 630-1), “can inhibit migration”.
For the compound `CCCCNC(=N)c1ccc(/N=N/c2c(N)ncc3ccc(Br)cc23)cc1` [HSY430-6], the results for the half-life in data set [7] (setting [35]) and in data set [7] (setting [36]) were 2.57 h and 2.38 h, respectively.
On to `CC(C)NC(=N)c1ccc(/N=N/c2c(N)ncc3ccc(Br)cc23)cc1` [HSY430-5], for which the “NADPH-independent T½” value in [7] (human liver microsomes) is greater than 4 h. Further, the half-life in [7] (human liver microsomes, read-out: NADPH-dependent T½) was greater than 4 h.
With `N.N.[Cl][Pt][Cl]` [Cisplatin], the IC50 in data set [10] is 9 µM; in data set [11], 5 µM; in data set [12], 6 µM; in [13] it was 6 µM; in [1] (72 hours, WST-1, read-out: Anticancer activity IC50 ± SD, MDA-MB-231), 11.7 ± 1 µM; in data set [1] (triple negative breast cancer, read-out: Anticancer activities, TNBC 231) it was 11.7 µM. Also, the IC50 in data set [14] was 7 µM; in data set [15], 20 µM; in data set [16], 7 µM; in data set [17], 12 µM; in [18], 2 µM; in [19], 10 µM. Moreover, the IC50 in data set [20] was 22 µM; in data set [21], 20 µM; in data set [5] (72 hours, WST-1, read-out: Anticancer activity IC50 ± SD, PC-3) it was 10.5 ± 1.3 µM; in data set [5] (prostate cancer, read-out: Anticancer activities, PC3) it was 10.5 µM; in [22] (read-out: Anticancer activity IC50 ± SD, OVCAR-3) it was 4.1 ± 1.8 µM; in data set [23] it was 11 µM. The IC50 was 38 µM in [24]; greater than 50 µM in data set [25]; greater than 50 µM in data set [26]; 5 µM in data set [27]; 15 µM in [28].
Consider `c1ccc(N=NNc2ccccc2)cc1` [Triazene-2], for which the self-aggregation result in data set [29] was “exhibited self-aggregation”.
Take `N#Cc1ccc(NN=Nc2ccc(C(=N)N)cc2)cc1` [DMZ2]: the “Anticancer activity IC50 ± SD, MDA-MB-231” value in data set [1] (72 hours, WST-1) is given as “NE (NE means not effective. Cell viability was the same or greater than 75% of the DMSO control at 20 μM compound concentration.)”. Moreover, the “ΔTm c-MYC” value in [30] was 8.06 ± 0.68 °C. Moreover, the “ΔTm c-kit2” value in data set [31] was found to be 5.30 ± 0.26 °C. In addition, the “Anticancer activity IC50 ± SD, PC-3” value in data set [5] (72 hours, WST-1) was “NE (NE means not effective. Cell viability was the same or greater than 75% of the DMSO control at 20 μM compound concentration.)”. Further, the “Anticancer activity IC50 ± SD, OVCAR-3” value in [22] is “NE (NE means not effective. Cell viability was the same or greater than 75% of the DMSO control at 20 μM compound concentration.)”. The “ΔTm k-RAS21R” value in data set [32] worked out at 7.49 ± 0.00 °C. In addition, the “ΔTm F21T” value in data set [33] was 4.20 ± 0.00 °C. Besides, the ΔTm duplex result in data set [34] is given as “NE (NE means not effective binding (ΔTm < 1° C.))”.
